From ChEMBL document CHEMBL1140017, “Anti-AIDS agents 72. Bioisosteres (7-carbon-DCKs) of the potent anti-HIV lead DCK” (Bioorg Med Chem Lett, 2007)

Experiments:
H9 = assay: Cytotoxicity against H9 cells assessed as growth inhibition; assay type: cell-based; details: Homo sapiens
[1] = system: Human immunodeficiency virus; assay: Antiviral activity against HIV replication in H9 cells; assay type: functional, organism-based; details: Human immunodeficiency virus 1, H9
[2] = Therapeutic index, IC50 for H9 cells to EC50 for HIV; assay type: cell-based; details: human, read-out: Ratio IC50/EC50

SMILES	IC50 (H9)	EC50 [1]	selectivity ratio [2]
Cc1cc(=O)oc2c3c(ccc12)CC[C@H](OC(=O)C12CCC(C)(C(=O)O1)C2(C)C)[C@@H]3OC(=O)C12CCC(C)(C(=O)O1)C2(C)C (stereo partly specified)	54400 nM	83 nM	659
Cc1cn([C@H]2C[C@H](N=[N+]=[N-])[C@@H](CO)O2)c(=O)[nH]c1=O [ZIDOVUDINE]	–	13.7 nM	36500
Cc1cc(=O)oc2c3c(ccc12)CC(C)(C)[C@H](OC(=O)C12CCC(C)(C(=O)O1)C2(C)C)[C@@H]3OC(=O)C12CCC(C)(C(=O)O1)C2(C)C (stereo partly specified)	> 39400 nM	< 390 nM	> 100
CC12CCC(C(=O)O[C@H]3CCc4ccc5ccc(=O)oc5c4[C@H]3OC(=O)C34CCC(C)(C(=O)O3)C4(C)C)(OC1=O)C2(C)C (stereo partly specified)	57200 nM	68 nM	841
